Data taken from patent US10844019B2, “1-phenyl-3-carbamoyl urea compound, and use thereof” (Sumitomo Chemical Company, Limited, priority 2016, dated 2020).

Tested on: cucumber phytophthora blight fungi (Phytophthora capsici)
Assay: Test for controlling cucumber phytophthora blight fungi (growth in PDB medium, absorbance at 600 nm)
Assay type: cell-based
Conditions: 4.5 mg in 100 μL dimethyl sulfoxide, 1 μL of it in 150 μL PDB medium with zoospores, 27° C., three days, Efficacy=100×(X−Y)/X
Protocol: Four point five (4.5) milligrams of the present compound was diluted with 100 μL of dimethyl sulfoxide. One (1) μL portion of the diluted liquid was dispensed into a titer plate (96 wells), and thereto was then dispensed 150 μL of a potato dextrose broth medium (PDB medium) containing zoospores of cucumber phytophthora blight fungi (Phytophthora capsici). This plate was cultured at 27° C. for three days, thereby allowing the cucumber phytophthora blight fungi to undergo proliferation, and the absorbance at 600 nm of each well of the titer plate was then measured to determine a degree of growth of the cucumber phytophthora blight fungi. The efficacy was calculated from the determined degree of growth by the below-mentioned “Equation 1”. As a result, the efficacy of the Present compound was 80% or more. Efficacy=100×(X−Y)/X “Equation 1” where X: Degree of fungal growth in non-treated area Y: Degree of fungal growth in treated area
In the test example, a non-treated area means an area in which a test was conducted in the same manner, except that dimethyl sulfoxide was dispensed in place of the present compound diluted with dimethyl sulfoxide.

| Compound | Efficacy |
| --- | --- |
| CCOC(=O)COc1ncccc1Oc1cc(NC(=O)NC(N)=O)c(F)cc1Cl [Present compound] | ≥ 80% |
| CCOC(=O)COc1ncccc1Oc1cc(NC(C)=O)c(F)cc1Cl [N-[4-chloro-2-fluoro-5-{2-(ethoxycarbonyl)methoxy-3-pyridyloxy}phenyl]acetamide] | less than 50% |
